Test results: PubChem BioAssay AID1963831 (Molecular Pharmacology Branch, DTP, NCI, 2024)

Tested on: 889142-216-R-J1-PDC complex spheroid viability
Test: Anticancer human tumor 889142-216-R-J1-PDC patient-derived bladder carcinoma cell line growth inhibition [POLQ]
Details: for IC50: curve of first compound; for viability, T/C: stronger effect = lower value
Method: Multicellular complex tumor spheroid response to Polymerase (POL) inhibitors (novobiocin, ART-558, RP6685) in combination with a variety of drugs and investigational agents in selected tumor cell lines
The POL inhibitors (novobiocin, ART-558, and RP6685) were evaluated both individually and in combination with standard of care and investigational anticancer small molecules within a complex spheroid model of solid tumors. . Complex spheroids include a stromal component modeled by human endothelial cells (HUVEC) and fibroblasts modeled by human mesenchymal stem cells (MSCs). The concentration ranges selected for each drug and investigational agent were based upon clinically achievable concentrations if the clinical Cmax of the agent was known.
Compounds. The drugs and investigational agents: novobiocin (NSC847541), ART-558 (NSC835418), RP-6685 (NSC848927), peposertib (NSC802822), ceralasertib (NSC780249), elimusertib (NSC800525), camonsertib (NSC841442), AZD-1390 (NSC803789), olaparib (NSC753686), talazoparib (NSC767125), rucaparib (NSC756644), sotorasib (NSC818433), MRTX-1133 (NSC836407), SN-38 (NSC673596), topotecan (NSC609699), epotoside (NSC141540), doxorubicin (NSC123127), gemcitabine (NSC613327), 5-fluorouracil (NSC19893), paclitaxel (NSC125973), vemurafenib (NSC761431), MSA-2 (NSC828583), SN-011 (NSC837082), adavosertib (NSC754352), prexasertib (NSC758257), carboplatin (NSC241240) and oxaliplatin (NSC266046), were obtained from the National Cancer Institute (NCI) Developmental Therapeutics Program Chemical Repository (21). The FDA-approved anticancer drug set is available from the Developmental Therapeutics Program at https://dtp.cancer.gov/organization/dscb/obtaining/. […] The stock solutions were prepared in dimethyl sulfoxide (DMSO, Sigma-Aldrich, St. Louis, MO, cat. D2650), except for the platinum compounds which were prepared in saline (Quality Biological, Gaithersburg, MD, cat. 114-055-101), at 800-fold the tested concentration and stored at -70 degrees C prior to their use. All drugs and investigational agents were tested over a range starting from a high concentration at or near the clinical Cmax and decreasing in half-log increments. If the clinical Cmax for an agent had not been determined, the highest concentration tested was 10 microM, except for SN-38, which was tested at a high concentration of 1 microM.
Cell Culture. All cells were maintained in an incubator at 37 degrees C and 5% CO2 with 95% humidity. The PDC lines were cultured according to standard operating procedures established by the NCI PDMR (https://pdmr.cancer.gov). Table 3 of the manuscript, lists the cell lines along with the number of the three cell types plated to form the mct-spheroids and media for tumor cell growth. After thawing, all PDC lines, except 997537-175-T-J1-PDC and 415267-285-R-J2-PDC, were cultured in Matrigel-coated flasks prepared with a working solution of 1X Ham's F-12 nutrient mix, without supplementation (Thermo Fisher Scientific, cat. 11765054), 100 U/mL penicillin-streptomycin (Thermo Fisher Scientific, cat. 15140122), and 2.5% Matrigel (Corning Inc., Corning, NY, cat. 354248) for the first three passages. The two PDC lines 997537-175-T-J1-PDC and 415267-285-R-J2-PDC were cultured on uncoated flasks. The 857933-349-R-J2-PDC line was cultured in 6C/Colon 1B media containing advanced DMEM/F-12 (Thermo Fisher Scientific, cat. 12634028), 10 mM HEPES (Thermo Fisher Scientific, cat. 15630080), 1X GlutaMAX supplement (Thermo Fisher Scientific, cat. 35050061), 0.1 mg/mL primocin (InvivoGen, San Diego, CA, cat. ant-pm-2), 10% defined fetal bovine serum, heat inactivated (HyClone Laboratories Inc., Logan, UT, cat. SH30070.03HI), 50% L-WRN conditioned media (ATCC, cat. CRL-3276), 1.25 mM N-Acetyl-L-cysteine (Sigma-Aldrich, cat. A9165), 10 mM nicotinamide (Sigma-Aldrich, cat. N0636), 1X B-27 supplement (Thermo Fisher Scientific, cat. 17504044), 1X N-2 supplement (Thermo Fisher Scientific, cat. […]
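Also: spheroids exposed to compounds for seven days.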
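For viability, T/C in this document: 100% = DMSO vehicle control viability.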

## C#Cc1c(F)ccc2cc(O)cc(-c3ncc4c(N5CC6CCC(C5)N6)nc(OCC56CCCN5CC(F)C6)nc4c3F)c12 (configuration not stated) + COC1C(OC(N)=O)C(O)C(Oc2ccc3c(O)c(NC(=O)c4ccc(O)c(CC=C(C)C)c4)c(=O)oc3c2C)OC1(C)C
Second compound 0.0316 µM
  IC50: 5.38 µM
Second compound 0.1 µM
  IC50: 9.08 µM
Second compound 0.316 µM
  IC50: 5.82 µM
Second compound 1 µM
  IC50: 4.77 µM
Second compound 3.16 µM
  IC50: 5.53 µM
Second compound 10 µM
  IC50: 4.96 µM
Second compound 0.0316 µM, first compound 0.0316 µM
  viability, T/C: 99.2%
Second compound 0.0316 µM, first compound 0.1 µM
  viability, T/C: 111%
Second compound 0.0316 µM, first compound 0.316 µM
  viability, T/C: 66.3%
Second compound 0.0316 µM, first compound 1 µM
  viability, T/C: 88.7%
Second compound 0.0316 µM, first compound 3.16 µM
  viability, T/C: 63.7%
Second compound 0.0316 µM, first compound 10 µM
  viability, T/C: 34.5%
Second compound 0.1 µM, first compound 0.0316 µM
  viability, T/C: 108%
Second compound 0.1 µM, first compound 0.1 µM
  viability, T/C: 109%
Second compound 0.1 µM, first compound 0.316 µM
  viability, T/C: 77.4%
Second compound 0.1 µM, first compound 1 µM
  viability, T/C: 89.5%
Second compound 0.1 µM, first compound 3.16 µM
  viability, T/C: 81.5%
Second compound 0.1 µM, first compound 10 µM
  viability, T/C: 44.3%
Second compound 0.316 µM, first compound 0.0316 µM
  viability, T/C: 119%
Second compound 0.316 µM, first compound 0.1 µM
  viability, T/C: 113%
Second compound 0.316 µM, first compound 0.316 µM
  viability, T/C: 82.5%
Second compound 0.316 µM, first compound 1 µM
  viability, T/C: 97.3%
Second compound 0.316 µM, first compound 3.16 µM
  viability, T/C: 76.1%
Second compound 0.316 µM, first compound 10 µM
  viability, T/C: 29.4%
Second compound 1 µM, first compound 0.0316 µM
  viability, T/C: 89.1%
Second compound 1 µM, first compound 0.1 µM
  viability, T/C: 91.8%
Second compound 1 µM, first compound 0.316 µM
  viability, T/C: 95.4%
Second compound 1 µM, first compound 1 µM
  viability, T/C: 82%
Second compound 1 µM, first compound 3.16 µM
  viability, T/C: 62.8%
Second compound 1 µM, first compound 10 µM
  viability, T/C: 27.8%
Second compound 3.16 µM, first compound 0.0316 µM
  viability, T/C: 96.9%
Second compound 3.16 µM, first compound 0.1 µM
  viability, T/C: 84.9%
Second compound 3.16 µM, first compound 0.316 µM
  viability, T/C: 95%
Second compound 3.16 µM, first compound 1 µM
  viability, T/C: 79.2%
Second compound 3.16 µM, first compound 3.16 µM
  viability, T/C: 78.2%
Second compound 3.16 µM, first compound 10 µM
  viability, T/C: 23.2%
Second compound 10 µM, first compound 0.0316 µM
  viability, T/C: 103%
Second compound 10 µM, first compound 0.1 µM
  viability, T/C: 87.2%
Second compound 10 µM, first compound 0.316 µM
  viability, T/C: 76.1%
Second compound 10 µM, first compound 1 µM
  viability, T/C: 76.8%
Second compound 10 µM, first compound 3.16 µM
  viability, T/C: 71.5%
Second compound 10 µM, first compound 10 µM
  viability, T/C: 27.1%
